According to patent publication US20110178143A1, “THERAPEUTIC COMPOUNDS” (ALLERGAN, INC., priority 2007, published 2011):
Where two headings read alike, the source gives them in different places.

Assays:
alpha2B receptor = molecular target: T1, alpha2B receptor (Homo sapiens, UniProt P18089); experiment: Receptor Selection and Amplification Technology (RSAT) assay, alpha 2B; format: cell-based; settings: for Emax: read-out: Alpha 2B intrinsic activity (IA), in parentheses
T1 construct: expressed in transfected cells; host or cells: NIH-3T3 cells
T1 sequence (P18089 1-450): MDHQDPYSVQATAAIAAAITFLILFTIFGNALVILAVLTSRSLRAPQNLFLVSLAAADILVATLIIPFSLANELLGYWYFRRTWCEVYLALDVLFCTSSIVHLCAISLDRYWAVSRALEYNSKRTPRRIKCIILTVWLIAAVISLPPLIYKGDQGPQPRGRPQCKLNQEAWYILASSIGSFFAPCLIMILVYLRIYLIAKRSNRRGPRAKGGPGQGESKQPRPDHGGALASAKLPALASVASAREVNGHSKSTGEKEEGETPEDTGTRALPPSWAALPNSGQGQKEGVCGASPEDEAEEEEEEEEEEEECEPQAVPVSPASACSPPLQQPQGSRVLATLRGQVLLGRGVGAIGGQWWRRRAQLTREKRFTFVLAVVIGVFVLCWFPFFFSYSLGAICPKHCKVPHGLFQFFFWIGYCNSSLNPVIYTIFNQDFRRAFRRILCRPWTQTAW
Procedure: (§1) Receptor Selection and Amplification Technology (RSAT) Assay
(§2) The RSAT assay measures a receptor-mediated loss of contact inhibition that results in selective proliferation of receptor-containing cells in a mixed population of confluent cells. The increase in cell number is assessed with an appropriate transfected marker gene such as β-galactosidase, the activity of which can be easily measured in a 96-well format. Receptors that activate the G protein, Gq, elicit this response. Alpha2 receptors, which normally couple to Gi, activate the RSAT response when coexpressed with a hybrid Gq protein that has a Gi receptor recognition domain, called Gq/i5.
(§3) NIH-3T3 cells are plated at a density of 2×10^6 cells in 15 cm dishes and maintained in Dulbecco's modified Eagle's medium supplemented with 10% calf serum. One day later, cells are cotransfected by calcium phosphate precipitation with mammalian expression plasmids encoding p-SV-β-galactosidase (5-10 μg), receptor (1-2 μg) and G protein (1-2 μg). 40 μg salmon sperm DNA may also be included in the transfection mixture. Fresh media is added on the following day and 1-2 days later, cells are harvested and frozen in 50 assay aliquots. Cells are thawed and 100 μl added to 100 μl aliquots of various concentrations of drugs in triplicate in 96-well dishes. Incubations continue 72-96 hr at 37° C. After washing with phosphate-buffered saline, β-galactosidase enzyme activity is determined by adding 200 μl of the chromogenic substrate (consisting of 3.5 mM o-nitrophenyl-β-D-galactopyranoside and 0.5% nonidet P-40 in phosphate buffered saline), incubating overnight at 30° C. and measuring optical density at 420 nm. The absorbance is a measure of enzyme activity, which depends on cell number and reflects a receptor-mediated cell proliferation. The efficacy or intrinsic activity is calculated as a ratio of the maximal effect of the drug to the maximal effect of a standard full agonist for each receptor subtype. Brimonidine, also called UK14304, the chemical structure of which is shown below, is used as the standard agonist for the alpha2A, alpha2B and alpha2c receptors. The EC50 is the concentration at which the drug effect is half of its maximal effect.
(§4) EC50 values are nanomolar. ND stands for “not determinable” at concentrations less than 10 micromolar. IA stands for “intrinsic activity.”

alpha2C receptor = molecular target: T2, alpha2C receptor (Homo sapiens, UniProt P18825); experiment: Receptor Selection and Amplification Technology (RSAT) assay, alpha 2C; format: cell-based; settings: for Emax: RSAT, maximal effect relative to standard full agonist brimonidine (UK14304), read-out: Alpha 2C intrinsic activity (IA), in parentheses
T2 construct: expressed in transfected cells; host or cells: NIH-3T3 cells
T2 sequence (P18825 1-462): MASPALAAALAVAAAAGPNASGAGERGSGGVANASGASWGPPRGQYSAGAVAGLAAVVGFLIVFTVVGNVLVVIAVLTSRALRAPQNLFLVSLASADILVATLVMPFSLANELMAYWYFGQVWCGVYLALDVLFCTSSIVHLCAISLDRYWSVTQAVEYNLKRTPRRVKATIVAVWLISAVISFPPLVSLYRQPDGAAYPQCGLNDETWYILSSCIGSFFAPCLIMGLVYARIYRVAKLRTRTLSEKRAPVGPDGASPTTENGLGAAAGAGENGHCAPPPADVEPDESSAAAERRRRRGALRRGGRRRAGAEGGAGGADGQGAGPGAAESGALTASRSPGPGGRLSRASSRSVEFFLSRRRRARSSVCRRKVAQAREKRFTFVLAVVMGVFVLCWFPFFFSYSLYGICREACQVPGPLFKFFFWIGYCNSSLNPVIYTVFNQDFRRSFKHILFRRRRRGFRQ
Procedure: as §1, §2, §3, §4

alpha2A receptor = molecular target: T3, alpha2A receptor (Homo sapiens, UniProt P08913); experiment: cell-based; settings: for Emax: read-out: Alpha 2A intrinsic activity (IA), in parentheses
T3 sequence (P08913 1-465): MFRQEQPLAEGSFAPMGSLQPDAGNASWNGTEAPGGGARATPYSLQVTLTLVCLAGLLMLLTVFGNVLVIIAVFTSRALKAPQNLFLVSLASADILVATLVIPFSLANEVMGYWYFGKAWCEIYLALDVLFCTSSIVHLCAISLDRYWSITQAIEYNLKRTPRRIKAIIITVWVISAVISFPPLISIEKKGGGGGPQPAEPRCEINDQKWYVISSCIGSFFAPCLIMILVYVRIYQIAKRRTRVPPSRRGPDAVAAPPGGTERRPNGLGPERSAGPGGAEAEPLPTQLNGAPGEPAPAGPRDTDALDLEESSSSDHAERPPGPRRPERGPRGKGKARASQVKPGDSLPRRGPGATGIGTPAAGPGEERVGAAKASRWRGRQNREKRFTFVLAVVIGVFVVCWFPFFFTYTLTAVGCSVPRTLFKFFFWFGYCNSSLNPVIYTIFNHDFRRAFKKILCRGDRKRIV
Procedure: NIH-3T3 cells are plated at a density of 2×10^6 cells in 15 cm dishes and maintained in Dulbecco's modified Eagle's medium supplemented with 10% calf serum. One day later, cells are cotransfected by calcium phosphate precipitation with mammalian expression plasmids encoding p-SV-β-galactosidase (5-10 μg), receptor (1-2 μg) and G protein (1-2 μg). 40 μg salmon sperm DNA may also be included in the transfection mixture. Fresh media is added on the following day and 1-2 days later, cells are harvested and frozen in 50 assay aliquots. Cells are thawed and 100 μl added to 100 μl aliquots of various concentrations of drugs in triplicate in 96-well dishes. Incubations continue 72-96 hr at 37° C. After washing with phosphate-buffered saline, β-galactosidase enzyme activity is determined by adding 200 μl of the chromogenic substrate (consisting of 3.5 mM o-nitrophenyl-β-D-galactopyranoside and 0.5% nonidet P-40 in phosphate buffered saline), incubating overnight at 30° C. and measuring optical density at 420 nm. The absorbance is a measure of enzyme activity, which depends on cell number and reflects a receptor-mediated cell proliferation. The efficacy or intrinsic activity is calculated as a ratio of the maximal effect of the drug to the maximal effect of a standard full agonist for each receptor subtype. […] The EC50 is the concentration at which the drug effect is half of its maximal effect.

[1] = RSAT in transfected NIH-3T3 cells, nd = not determinable at concentrations less than 10 micromolar, read-out: Alpha 2B EC50
[2] = RSAT in transfected NIH-3T3 cells, nd = not determinable at concentrations less than 10 micromolar, read-out: Alpha 2C EC50

| SMILES | EC50 (alpha2B receptor) | Emax (alpha2B receptor) | EC50 (alpha2C receptor) | Emax (alpha2C receptor) | Emax (alpha2A receptor) | EC50 (alpha2B receptor; [1]) | EC50 (alpha2C receptor; [2]) | EC50 (alpha2A receptor) |
| --- | --- | --- | --- | --- | --- | --- | --- | --- |
| Cc1cccc2c1CC[C@@H]2NC1=NCCN1 | 4.5 nM | 125% | 82 nM | 62% | 16% | – | – | – |
| c1ccc2c(c1)CCC2NC1=NCCS1 (stereo not shown) | 7.5 nM | 107% | 54 nM | 102% | 14% | – | – | – |
| Brc1cccc2c1CCC2NC1=NCCN1 (stereo not shown) | 12.2 nM | 71% | – | 12% | 7% | – | – | – |
| c1ccc2c(c1)CC[C@@H]2NC1=NCCN1 | 43 nM | 82% | – | 11% | 4% | – | – | – |
| Cc1cccc2c1CC[C@@H]2NC1=NCCS1 | – | 138% | – | 96% | 57% | 3.4 nM | 23 nM | 143 nM |
| Cc1cccc2c1CC[C@H]2NC1=NCCN1 | 33.4 nM | 106% | – | 11% | 11% | – | – | – |
| Cc1cccc2c1CCC2NC1=NCCN1 (stereo not shown) | 5.7 nM | 98% | – | 38% | 20% | – | 429 nM | – |
| Cc1ccc2c(c1)C(NC1=NCCN1)CC2 (stereo not shown) | – | 34% | – | 7% | 7% | 473 nM | – | – |
| c1ccc2c(c1)CC(NC1=NCCN1)C2 | – | 36% | – | 5% | 5% | 61 nM | – | – |
| CC1CC(NC2=NCCO2)c2ccccc21 (stereo not shown) | – | 112% | – | 50% | 25% | 2.2 nM | 19.8 nM | 7 nM |
| c1ccc2c(c1)CCC2NC1=NCCN1 (stereo not shown) | 17 nM | 93% | – | 46% | 3% | – | 207 nM | – |
| CC1CC(NC2=NCCS2)c2ccccc21 (stereo not shown) | 10 nM | 99% | 86 nM | 41% | 25% | – | – | 180 nM |
